One series can be described thus: Serum stability assay. The series is classed as in vitro ADME. The conditions noted are these: radiolabeled peptide 5 MBq in 500 µL human serum (Sigma Aldrich, H4522), 37°C, aliquots by radio-HPLC. As for the experimental part:
(§1) Radio-HPLC was performed on an Agilent 1100 HPLC system equipped with a radioactivity detector (GABI Star, Raytest GmbH, Straubenhardt, Germany) using a Chromolith Performance RP-18e column (100×3 mm; Merck AG Darmstadt, Germany) eluted with a linear gradient (eluent A: 0.1% TFA in water; eluent B: 0.1% TFA in acetonitrile; 0–30% B in 10 min, flow rate: 2 mL/min).
Metabolic stability was investigated in human serum (Sigma Aldrich, H4522). 5 MBq of radiolabeled peptide was dissolved in human serum (500 µL) and incubated at 37°C. The stability of the labeled peptide was monitored by analyzing aliquots (25 µl) via radio-HPLC at selected time points.

Series [1] has as its system CA IX positive human renal cell carcinoma SKRC 52 cells. Put plainly: In vitro binding of 125I-labeled peptides on SKRC 52 cells. Particulars: for binding capacity on SKRC 52 cells compared to the native CaIX-P1 peptide: 125I-labeled fragments, result in words; for binding after 10 minutes compared to 30 minutes incubation: 125I-labeled peptides. The protocol: (§2) For binding experiments 5×10^5 SKRC 52 or BxPC3 cells were seeded into 6-well plates and cultivated in 3 mL of incubation medium at 37°C for 24 h. After cell blocking with RPMI 1640 (without FCS) containing 1% BSA, the medium was replaced with 1 mL of fresh medium (without FCS) containing 0.8–1.2×10^6 cpm of ^125I-labeled peptide and incubation was performed for time periods varying from 10 min to 2 h at 37°C. To determine specific versus nonspecific binding, the cells were incubated with unlabeled competitors at concentrations varying from 10^−4 to 10^−10 mol/L. Octreotide was used as negative control competitor. After incubation the medium was removed and the cells were washed three times with 1 mL ice cold PBS in order to remove the unbound radiolabeled peptide. Subsequently, the cells were lysed with 0.5 mL NaOH 0.3 mol/L and the radioactivity was measured with a γ-counter. Bound radioactivity was calculated as percentage applied dose per 10^6 cells. CA IX negative BxPC3 cells were used as negative control.

Series [2] deals with SKRC 52 cells. The series is classed as binding, human. Particulars: for inhibition of the radioligand binding: 10^−4 mol/L competitor concentration; for inhibition of the radioligand binding / binding inhibition: 125I-CaIX-P1-4-10 on SKRC 52 cells; for binding inhibition: competitor concentration of 10^−5 mol/L. The protocol: as §2
In series [3] the test system is SKRC 52 cells. Put plainly: In vitro (medium) stability of 125I-labeled peptide on SKRC 52 cells. The series is classed as in vitro ADME, human. As for the experimental part: as §1
(§3) ^125I-labeled peptide was incubated at 37°C on SKRC 52 and BxPC3 cells. At time points varying from 10 min to 2 h aliquots were taken and centrifuged for 5 min at 13,000 rpm. The supernatant was analyzed by HPLC with H2O∶CH3CN, 0–30% in 10 min.

For a further series, the system named is BxPC3 cells. Put plainly: In vitro (medium) stability of 125I-labeled peptide on BxPC3 cells. The series is classed as in vitro ADME, human. Particulars: 37°C, 10 min to 2 h, supernatant by radio-HPLC. The protocol:
as §1, §3

The next series in a line: in vivo. Also on record: species or system Balb/c nu/nu mice. Particulars: female, Balb/c nu/nu, mouse, iv, 1 MBq, total radioactivity, Tumor to organ ratio. As for the experimental part: Organ distribution studies were performed in 9-week-old female Balb/c nu/nu mice, carrying subcutaneously transplanted SKRC 52 tumors. Animals were obtained from Charles River WIGA and housed in VentiRacks (BioZone Global). For tumor transplantation, SKRC 52 cells were grown to 90% confluence, harvested with PBS/ethylene diamine tetraacetic acid, resuspended in Falcon Matrigel-Matrix (BD) and kept on ice. 200 µl of Matrigel-Matrix cell suspension were injected subcutaneously into the anterior region of the mouse trunk and the tumors were grown to a size of 1.0 cm^3. ^131I-labeled CaIX-P1-4-10 was injected into the tail vein of the animals (approximately 1 MBq) and at 15 min, 60 min and 240 min after injection the animals were sacrificed. Tumor, blood and selected tissues (heart, spleen, liver, kidney, muscle, intestinum and brain) were removed, drained of blood, weighed and the radioactivity was measured in a γ-counter (LB 951G; Berthold Technologies). Also 3 aliquots of the tracer solution used for injection were measured. The organ uptake was calculated as percentage injected dose per gram tissue (% ID/g).

Read-outs that look alike come from different tables or passages of the source. Peptide text beside a SMILES is read from it.

Usually IC50 stands for the concentration that gives 50% inhibition. For `CC(C)C[C@H](NC(=O)[C@@H]1CCCN1C(=O)[C@@H](NC(=O)[C@H](Cc1c[nH]cn1)NC(=O)[C@@H](N)CC(N)=O)C(C)C)C(=O)N[C@@H](CO)C(=O)N1CCC[C@H]1C(=O)N[C@H](Cc1ccc(O)cc1)C(N)=O` [CaIX-P1-4-10] (HELM PEPTIDE1{N.H.V.P.L.S.P.[dY].[am]}$$$$V2.0; N-terminus assumed), in “Serum stability assay”, the Serum half life was 1.5 h. The “binding capacity on SKRC 52 cells compared to the native CaIX-P1 peptide” value in series [1] is “almost six-fold binding”. Further, in the series on SKRC 52 cells [2], the “inhibition of the radioligand binding” value is listed as “over 95%” and the binding inhibition result is “about 95%”. Moreover, half-maximal inhibition with SKRC 52 cells [2] (24 h) (IC50) required 130 nM. Also, the “degradation in medium at 120 min” value in the series with SKRC 52 cells [3] (125I-labeled peptide on SKRC 52 cells, 37°C, 120 min incubation, supernatant by radio-HPLC) is on record as “completely degraded”. Moreover, the “activity (intact radioligand) measured in medium” value with SKRC 52 cells [3] (125I-labeled peptide on SKRC 52 cells, 37°C, after 60 min incubation, supernatant by radio-HPLC) turned out to be 30%. Further, the “degradation site in the sequence” value with SKRC 52 cells [3] (comparison of HPLC chromatograms of C-terminal fragments with SKRC 52 cell medium supernatants) is “degraded between ^6S and ^7P”. Moreover, the “radioligand degradation in medium on BxPC3 cells” value with BxPC3 cells was “No radioligand degradation”.
Consider `CC(C)C[C@H](NC(=O)[C@@H]1CCCN1C(=O)[C@@H](NC(=O)[C@H](Cc1c[nH]cn1)NC(=O)[C@@H](N)CC(N)=O)C(C)C)C(=O)N[C@@H](CO)C(=O)N1CCC[C@H]1C(=O)N[C@H](Cc1ccc(O)c(I)c1)C(N)=O` [^131I-CaIX-P1-4-10] (HELM PEPTIDE1{N.H.V.P.L.S.P.[O=C([C@@H](Cc1ccc(O)c(I)c1)N[*:1])[*:2]].[am]}$$$$V2.0; N-terminus assumed), for which the tissue to tissue ratio at 0.25 h turned out to be 0.63 in “in vivo” (Blood); 13.9 in the series “in vivo” (Brain); 1.63 in the series “in vivo” (Heart); 0.56 in “in vivo” (Kidney); 1.32 in “in vivo” (Liver); 0.86 in the series “in vivo” (Lung). Also, the values for the tissue to tissue ratio at 0.25 h in “in vivo” (Muscle) and in the series “in vivo” (Spleen) were 3.36 and 1.06, respectively. Further, the tissue to tissue ratio at 1 h in the series “in vivo” (Blood) worked out at 0.69; in “in vivo” (Brain), 14.9; in the series “in vivo” (Heart), 2.09; in the series “in vivo” (Kidney), 0.73; in the series “in vivo” (Liver) it was 1.65; in the series “in vivo” (Lung), 0.88. For the same compound, the tissue to tissue ratio at 1 h in “in vivo” (Muscle) turned out to be 3.39; in “in vivo” (Spleen), 1.39. Further, the tissue to tissue ratio at 4 h in the series “in vivo” (Blood) was 0.67; in “in vivo” (Brain) it was 15.1; in the series “in vivo” (Heart) it was 1.84; in the series “in vivo” (Kidney) it was 0.61; in the series “in vivo” (Liver) it was 1.49; in the series “in vivo” (Lung), 0.92. The tissue to tissue ratio at 4 h is 2.53 in the series “in vivo” (Muscle) and 1.35 in “in vivo” (Spleen).
Regarding HVPLSPKy [CaIX-P1-5-12], the “binding capacity on SKRC 52 cells compared to the native CaIX-P1 peptide” value in series [1] is “significantly reduced binding activity”.
With “TNHVPLSPy [CaIX-P1-3-10, fragment representing the middle part of CaIX-P1 (TNHVPLSPy)]”, in series [1], the “binding capacity on SKRC 52 cells compared to the native CaIX-P1 peptide” value was “up to five-fold higher binding capacity” and the “binding after 10 minutes compared to 30 minutes incubation” value is “higher after 10 minutes as compared to 30 minutes incubation”.
With “YNTNHVPL [CaIX-P1-1-8, 8-amino acid fragment of CaIX-P1 (YNTNHVPL)]”, the “binding capacity on SKRC 52 cells compared to the native CaIX-P1 peptide” value in series [1] is reported as “significantly reduced binding activity”.
With YNTNHVPLSPKY [CaIX-P1], the “binding after 10 minutes compared to 30 minutes incubation” value in series [1] was “higher after 10 minutes as compared to 30 minutes incubation”. Besides, in the series with SKRC 52 cells [2], the “inhibition of the radioligand binding” value is recorded as “over 95%” and the binding inhibition result was “about 80%”. In addition, in the series with SKRC 52 cells [2] (unlabeled competitor against 125I-CaIX-P1-4-10 on SKRC 52 cells, read-out: IC50), the IC50 came out at 1500 nM.

These data come from article PMC3365038, “Optimization of a Novel Peptide Ligand Targeting Human Carbonic Anhydrase IX” (PLoS ONE, 2012).
